Consider five compounds from PubChem BioAssay AID1259407 (Chemical Carcinogenesis Research Information System (CCRIS), 2018).

The series relates to CCRIS mutagenicity, Ames/micronucleus/aberration tests. Put plainly: CCRIS mutagenicity studies.
The mark [1] stands for this setting: Test System: AMES SALMONELLA TYPHIMURIUM, Strain/Indicator: TA98, Metabolic Activation: RAT, LIVER, S-9, Method: STANDARD PLATE.
The mark [2] stands for this setting: Test System: AMES SALMONELLA TYPHIMURIUM, Strain/Indicator: TA100, Metabolic Activation: NONE, Method: STANDARD PLATE.
Where [3] appears, read: Test System: AMES SALMONELLA TYPHIMURIUM, Strain/Indicator: TA100, Metabolic Activation: RAT, LIVER, S-9, AROCLOR 1254, Method: STANDARD PLATE.
The mark [4] stands for this setting: Test System: AMES SALMONELLA TYPHIMURIUM, Strain/Indicator: TA100, Metabolic Activation: RAT, LIVER, S-9, Method: STANDARD PLATE.

Calls of active or inactive are those of the source. No rule for the calls is given here.

For the compound `CC(=O)Nc1ccc(C(=O)CCl)cc1`, the mutagenic call is, setting by setting: (Test System: AMES SALMONELLA TYPHIMURIUM, Strain/Indicator: TA98, Metabolic Activation: HAMSTER, LIVER, S-9, AROCLOR 1254, Method: STANDARD PLATE) “active; positive”; (Test System: AMES SALMONELLA TYPHIMURIUM, Strain/Indicator: TA98, Metabolic Activation: HAMSTER, LIVER, S-9, Method: STANDARD PLATE) “active; positive”; (Test System: AMES SALMONELLA TYPHIMURIUM, Strain/Indicator: TA98, Metabolic Activation: MOUSE, LIVER, S-9, Method: STANDARD PLATE) “inactive; negative”; (Test System: AMES SALMONELLA TYPHIMURIUM, Strain/Indicator: TA98, Metabolic Activation: NONE) “active; positive”; (Test System: AMES SALMONELLA TYPHIMURIUM, Strain/Indicator: TA98, Metabolic Activation: RAT, LIVER, S-9, AROCLOR 1254, Method: STANDARD PLATE) “inactive; negative”; (Test System: AMES SALMONELLA TYPHIMURIUM, Strain/Indicator: TA98, Metabolic Activation: RAT, LIVER, S-9, PHENOBARBITONE AND BETA-NAPHTHOFLAVONE) “active; positive”. The mutagenic call by setting is: under setting [1], “inactive; negative”; (Test System: AMES SALMONELLA TYPHIMURIUM, Strain/Indicator: TA100, Metabolic Activation: HAMSTER, LIVER, S-9, AROCLOR 1254, Method: STANDARD PLATE) “inactive; negative”; (Test System: AMES SALMONELLA TYPHIMURIUM, Strain/Indicator: TA100, Metabolic Activation: HAMSTER, LIVER, S-9, Method: STANDARD PLATE) “inactive; negative”; (Test System: AMES SALMONELLA TYPHIMURIUM, Strain/Indicator: TA100, Metabolic Activation: MOUSE, LIVER, S-9, AROCLOR 1254, Method: STANDARD PLATE) “inactive; negative”; (Test System: AMES SALMONELLA TYPHIMURIUM, Strain/Indicator: TA100, Metabolic Activation: MOUSE, LIVER, S-9, Method: STANDARD PLATE) “inactive; negative”; (Test System: AMES SALMONELLA TYPHIMURIUM, Strain/Indicator: TA100, Metabolic Activation: NONE) “inactive; negative”. In addition, the mutagenic call under setting [2] is “inactive; negative”; the mutagenic call under setting [3] is “inactive; negative”; the mutagenic call (Test System: AMES SALMONELLA TYPHIMURIUM, Strain/Indicator: TA100, Metabolic Activation: RAT, LIVER, S-9, PHENOBARBITONE AND BETA-NAPHTHOFLAVONE) was “inactive; negative”; the mutagenic call under setting [4] is “inactive; negative”; the mutagenic call (Test System: AMES SALMONELLA TYPHIMURIUM, Strain/Indicator: TA1535, Metabolic Activation: HAMSTER, LIVER, S-9, AROCLOR 1254, Method: STANDARD PLATE) was “inactive; negative”; the mutagenic call (Test System: AMES SALMONELLA TYPHIMURIUM, Strain/Indicator: TA1535, Metabolic Activation: HAMSTER, LIVER, S-9, Method: STANDARD PLATE) is “inactive; negative”. Moreover, the mutagenic call was “inactive; negative” (Test System: AMES SALMONELLA TYPHIMURIUM, Strain/Indicator: TA1535, Metabolic Activation: MOUSE, LIVER, S-9, AROCLOR 1254, Method: STANDARD PLATE); “inactive; negative” (Test System: AMES SALMONELLA TYPHIMURIUM, Strain/Indicator: TA1535, Metabolic Activation: MOUSE, LIVER, S-9, Method: STANDARD PLATE); “inactive; negative” (Test System: AMES SALMONELLA TYPHIMURIUM, Strain/Indicator: TA1535, Metabolic Activation: NONE, Method: STANDARD PLATE); “inactive; negative” (Test System: AMES SALMONELLA TYPHIMURIUM, Strain/Indicator: TA1535, Metabolic Activation: RAT, LIVER, S-9, AROCLOR 1254, Method: STANDARD PLATE); “inactive; negative” (Test System: AMES SALMONELLA TYPHIMURIUM, Strain/Indicator: TA1535, Metabolic Activation: RAT, LIVER, S-9, Method: STANDARD PLATE); “inactive; negative” (Test System: AMES SALMONELLA TYPHIMURIUM, Strain/Indicator: TA1537, Metabolic Activation: HAMSTER, LIVER, S-9, Method: STANDARD PLATE). Further, the mutagenic call was “inactive; negative” (Test System: AMES SALMONELLA TYPHIMURIUM, Strain/Indicator: TA1537, Metabolic Activation: MOUSE, LIVER, S-9, Method: STANDARD PLATE); “inactive; negative” (Test System: AMES SALMONELLA TYPHIMURIUM, Strain/Indicator: TA1538, Metabolic Activation: NONE); “inactive; negative” (Test System: AMES SALMONELLA TYPHIMURIUM, Strain/Indicator: TA1538, Metabolic Activation: RAT, LIVER, S-9, AROCLOR 1254, Method: STANDARD PLATE); “active; positive” (Test System: AMES SALMONELLA TYPHIMURIUM, Strain/Indicator: TA1538, Metabolic Activation: RAT, LIVER, S-9, PHENOBARBITONE AND BETA-NAPHTHOFLAVONE); “inactive; negative” (Test System: AMES SALMONELLA TYPHIMURIUM, Strain/Indicator: TA1538, Metabolic Activation: RAT, LIVER, S-9, Method: STANDARD PLATE); “inactive; negative” (Test System: E. COLI, Strain/Indicator: WP2 UVRA, Metabolic Activation: HAMSTER, LIVER, S-9, AROCLOR 1254, Method: STANDARD PLATE). Also, the mutagenic call is “inactive; negative” (Test System: E. COLI, Strain/Indicator: WP2 UVRA, Metabolic Activation: HAMSTER, LIVER, S-9, Method: STANDARD PLATE); “inactive; negative” (Test System: E. COLI, Strain/Indicator: WP2 UVRA, Metabolic Activation: MOUSE, LIVER, S-9, Method: STANDARD PLATE); “inactive; negative” (Test System: E. COLI, Strain/Indicator: WP2 UVRA, Metabolic Activation: NONE, Method: STANDARD PLATE); “inactive; negative” (Test System: E. COLI, Strain/Indicator: WP2 UVRA, Metabolic Activation: RAT, LIVER, S-9, AROCLOR 1254, Method: STANDARD PLATE); “inactive; negative” (Test System: E. COLI, Strain/Indicator: WP2 UVRA, Metabolic Activation: RAT, LIVER, S-9, Method: STANDARD PLATE).
Consider `Cc1cc2[nH]c3cc(C)c4ccccc4c3c2c2ccccc12`, for which the mutagenic call under setting [3] was “active; positive”.
Consider `CC1=CCC(O)(C(C)C)CC1` (stereo unspecified), for which the mutagenic call runs as follows: (Test System: AMES SALMONELLA TYPHIMURIUM, Strain/Indicator: TA98, Metabolic Activation: NONE, Method: STANDARD PLATE) “inactive; negative”; under setting [1], “inactive; negative”; under setting [2], “inactive; negative”; under setting [4], “inactive; negative”; (Test System: AMES SALMONELLA TYPHIMURIUM, Strain/Indicator: TA102, Metabolic Activation: NONE, Method: STANDARD PLATE) “inactive; negative”; (Test System: AMES SALMONELLA TYPHIMURIUM, Strain/Indicator: TA102, Metabolic Activation: RAT, LIVER, S-9, Method: STANDARD PLATE) “inactive; negative”.
On to `COC(=O)[C@H]1O[C@H]1c1ccccc1`, for which the mutagenic call under setting [2] was “active; positive”.
Take `c1ccc2c(c1)c1c(c3c4ccccc4c4ccccc4c23)O1`: the mutagenic call (Test System: AMES SALMONELLA TYPHIMURIUM, Strain/Indicator: TA98, Metabolic Activation: NONE, Method: PREINCUBATION (KCL-CONTAINING MEDIUM)) was “active; positive”; the mutagenic call (Test System: AMES SALMONELLA TYPHIMURIUM, Strain/Indicator: TA98, Metabolic Activation: NONE, Method: PREINCUBATION (KCL-FREE MEDIUM)) is “active; positive”; the mutagenic call (Test System: AMES SALMONELLA TYPHIMURIUM, Strain/Indicator: TA100, Metabolic Activation: NONE, Method: PREINCUBATION (KCL-FREE OR KCL-CONTAINING MEDIA)) is “active; positive”.
